Assay results reported in patent US20220187282A1, “CARDIOMYOCYTE PROLIFERATION” (The Council of the Queensland Institute of Medical Research, priority 2019, published 2022).
Read-outs that look alike come from different tables or passages of the source.

What was measured:
Format in all cases: biochemical
kinases [1] = target: kinases (Homo sapiens, UniProt Q99640); settings: PKMYT1 FRET-Lantha SP; Test Conc(μM) 1
kinases [2] = target: kinases (Homo sapiens, UniProt P49840); settings: GSK3A FRET-Z-Lyte SP; Test Conc(μM):ATP Conc(μM) 1:10
kinases [3] = target: kinases (Homo sapiens, UniProt P43250); settings: GRK6 FRET-Z-Lyte SP; Test Conc(μM):ATP Conc(μM) 1:10
kinases [4] = target: kinases (Homo sapiens, UniProt P09619); settings: PDGFRB *Mn* FRET-Z-Lyte SP; Test Conc(μM):ATP Conc(μM) 1:100
kinases [5] = target: kinases (Homo sapiens, UniProt O94768); settings: STK17B (DRAK2) FRET-Lantha SP; Test Conc(μM) 1
kinases [6] = target: kinases (Homo sapiens, UniProt Q16288); settings: NTRK3 (TRKC) FRET-Z-Lyte SP; Test Conc(μM):ATP Conc(μM) 1:50
kinases [7] = target: kinases (Homo sapiens, UniProt Q99759); settings: MAP3K3 (MEKK3) FRET-Lantha SP; Test Conc(μM) 1
kinases [8] = target: kinases (Homo sapiens, UniProt P11802); settings: Test Conc(μM):ATP Conc(μM) 1:10
kinases [9] = target: kinases (Homo sapiens, UniProt P16591); settings: FER FRET-Z-Lyte SP; Test Conc(μM):ATP Conc(μM) 1:25
kinases [10] = target: kinases (Homo sapiens, UniProt Q9Y6E0); settings: STK24 (MST3) FRET-Z-Lyte SP; ATP Conc(μM):Test Conc(μM) 1:50
kinases [11] = target: kinases (Homo sapiens, UniProt P53779)
kinases [12] = target: kinases (Homo sapiens, UniProt P43405); settings: SYK FRET-Z-Lyte SP; Test Conc(μM):ATP Conc(μM) 1:25
kinases [13] = target: kinases (Homo sapiens, UniProt P48736); settings: PIK3CG (p110 gamma) Adapta SP; Test Conc(μM):ATP Conc(μM) 1:25
kinases [14] = target: kinases (Homo sapiens, UniProt O60674)
kinases [15] = target: kinases (Homo sapiens, UniProt P45985); settings: MAP2K4 (MEK4) FRET-Lantha SP; Test Conc(μM) 1
kinases [16] = target: kinases (Homo sapiens, UniProt Q9UL54); settings: TAOK2 (TAO1) FRET-Z-Lyte SP
kinases [17] = target: kinases (Homo sapiens, UniProt Q13554); settings: CAMK2B FRET-Z-Lyte SP; Test Conc(μM):ATP Conc(μM) 1:75
kinases [18] = target: kinases (Homo sapiens, UniProt Q14680); settings: MELK FRET-Z-Lyte SP; Test Conc(μM):ATP Conc(μM) 1:25
kinases [19] = target: kinases (Homo sapiens, UniProt Q86UE8); settings: TLK2 FRET-Lantha SP; Test Conc(μM) 1
kinases [20] = target: kinases (Homo sapiens, UniProt Q16816); settings: PHKG1 FRET-Z-Lyte SP; Test Conc(μM):ATP Conc(μM) 1:75
kinases [21] = target: kinases (Homo sapiens, UniProt Q9NY57); settings: STK32B (YANK2) FRET-Lantha SP; Test Conc(μM) 1
kinases [22] = target: kinases (Homo sapiens, UniProt P48729); settings: CSNK1A1 FRET-Z-Lyte SP; Test Conc(μM):ATP Conc(μM) 1:5
kinases [23] = target: kinases (Homo sapiens, UniProt O00418); settings: EEF2K FRET-Z-Lyte SP; Test Conc(μM):ATP Conc(μM) 1:10
kinases [24] = target: kinases (Homo sapiens, UniProt P54762); settings: EPHB1 FRET-Z-Lyte SP; Test Conc(μM):ATP Conc(μM) 1:50
kinases [25] = target: kinases (Homo sapiens, UniProt O75914); settings: PAK3 FRET-Z-Lyte SP; Test Conc(μM):ATP Conc(μM) 1:100
kinases [26] = target: kinases (Homo sapiens, UniProt P48426); settings: PIP4K2A FRET-Adapta SP; Test Conc(μM):ATP Conc(μM) 1:10
kinases [27] = target: kinases (Homo sapiens, UniProt Q96PY6); settings: NEK1 FRET-Z-Lyte SP; ATP Conc(μM):Test Conc(μM) 1:100
kinases [28] = target: kinases (Homo sapiens, UniProt Q92918); settings: MAP4K1 (HPK1) FRET-Lantha SP; Test Conc(μM) 1
[29] = MAPK10 (JNK3) FRET-Lantha SP, Test Conc(μM) 1
[30] = MAPK10 (JNK3)Cascade Z-Lyte SP, Test Conc(μM):ATP Conc(μM) 1:100
[31] = JAK2 FRET-Z-Lyte SP, Test Conc(μM):ATP Conc(μM) 1:25

Sequence of kinases (Homo sapiens, UniProt P11802) (P11802 whole entry): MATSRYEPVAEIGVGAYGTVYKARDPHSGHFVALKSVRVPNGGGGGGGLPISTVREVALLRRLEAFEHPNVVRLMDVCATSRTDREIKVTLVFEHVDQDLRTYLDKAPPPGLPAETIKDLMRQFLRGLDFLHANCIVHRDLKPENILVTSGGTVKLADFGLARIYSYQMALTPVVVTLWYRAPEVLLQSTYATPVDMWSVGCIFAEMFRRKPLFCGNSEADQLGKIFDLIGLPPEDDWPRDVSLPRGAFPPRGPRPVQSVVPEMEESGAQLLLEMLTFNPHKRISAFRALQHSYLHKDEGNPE
Sequence of kinases (Homo sapiens, UniProt P53779) (P53779 whole entry): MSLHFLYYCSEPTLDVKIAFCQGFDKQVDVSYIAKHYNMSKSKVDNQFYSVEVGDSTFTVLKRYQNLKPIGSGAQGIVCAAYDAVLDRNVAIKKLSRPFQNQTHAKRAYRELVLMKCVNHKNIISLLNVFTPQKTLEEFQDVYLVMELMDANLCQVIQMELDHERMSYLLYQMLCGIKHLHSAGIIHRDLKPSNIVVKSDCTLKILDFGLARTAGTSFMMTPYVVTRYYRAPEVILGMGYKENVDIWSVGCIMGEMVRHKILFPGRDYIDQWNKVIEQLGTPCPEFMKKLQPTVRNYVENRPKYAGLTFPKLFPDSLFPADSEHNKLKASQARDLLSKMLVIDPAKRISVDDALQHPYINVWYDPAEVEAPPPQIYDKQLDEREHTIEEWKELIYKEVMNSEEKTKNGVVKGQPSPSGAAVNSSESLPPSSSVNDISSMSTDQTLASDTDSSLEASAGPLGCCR
Sequence of kinases (Homo sapiens, UniProt O60674) (O60674 whole entry): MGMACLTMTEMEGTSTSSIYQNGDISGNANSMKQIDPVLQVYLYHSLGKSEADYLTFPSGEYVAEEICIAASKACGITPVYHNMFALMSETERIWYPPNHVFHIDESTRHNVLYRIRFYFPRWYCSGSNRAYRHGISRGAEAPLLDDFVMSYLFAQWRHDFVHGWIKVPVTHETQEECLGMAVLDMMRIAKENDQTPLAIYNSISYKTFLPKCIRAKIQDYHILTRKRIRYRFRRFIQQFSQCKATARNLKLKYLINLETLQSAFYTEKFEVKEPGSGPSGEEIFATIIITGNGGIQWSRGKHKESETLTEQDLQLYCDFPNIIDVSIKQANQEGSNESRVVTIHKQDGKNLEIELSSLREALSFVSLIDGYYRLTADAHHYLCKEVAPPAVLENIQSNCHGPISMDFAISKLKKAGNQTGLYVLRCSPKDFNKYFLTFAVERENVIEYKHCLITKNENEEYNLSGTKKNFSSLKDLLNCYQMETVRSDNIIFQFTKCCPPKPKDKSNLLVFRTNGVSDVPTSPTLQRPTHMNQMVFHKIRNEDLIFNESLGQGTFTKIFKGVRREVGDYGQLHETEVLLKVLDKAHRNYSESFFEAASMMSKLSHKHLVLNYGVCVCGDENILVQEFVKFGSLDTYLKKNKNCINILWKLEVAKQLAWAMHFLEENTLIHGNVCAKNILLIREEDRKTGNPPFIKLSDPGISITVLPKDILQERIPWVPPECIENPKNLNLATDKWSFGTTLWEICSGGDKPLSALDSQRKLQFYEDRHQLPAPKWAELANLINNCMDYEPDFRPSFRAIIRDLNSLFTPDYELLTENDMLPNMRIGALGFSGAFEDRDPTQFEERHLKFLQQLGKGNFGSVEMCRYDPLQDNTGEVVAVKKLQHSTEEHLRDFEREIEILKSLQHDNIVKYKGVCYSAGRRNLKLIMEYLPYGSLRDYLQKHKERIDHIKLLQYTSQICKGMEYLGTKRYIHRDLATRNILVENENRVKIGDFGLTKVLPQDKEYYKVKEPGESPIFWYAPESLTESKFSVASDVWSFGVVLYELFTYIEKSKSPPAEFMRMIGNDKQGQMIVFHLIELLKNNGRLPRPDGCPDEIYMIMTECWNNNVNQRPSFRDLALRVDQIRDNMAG
Sequence of kinases (Homo sapiens, UniProt Q86UE8) (Q86UE8 whole entry): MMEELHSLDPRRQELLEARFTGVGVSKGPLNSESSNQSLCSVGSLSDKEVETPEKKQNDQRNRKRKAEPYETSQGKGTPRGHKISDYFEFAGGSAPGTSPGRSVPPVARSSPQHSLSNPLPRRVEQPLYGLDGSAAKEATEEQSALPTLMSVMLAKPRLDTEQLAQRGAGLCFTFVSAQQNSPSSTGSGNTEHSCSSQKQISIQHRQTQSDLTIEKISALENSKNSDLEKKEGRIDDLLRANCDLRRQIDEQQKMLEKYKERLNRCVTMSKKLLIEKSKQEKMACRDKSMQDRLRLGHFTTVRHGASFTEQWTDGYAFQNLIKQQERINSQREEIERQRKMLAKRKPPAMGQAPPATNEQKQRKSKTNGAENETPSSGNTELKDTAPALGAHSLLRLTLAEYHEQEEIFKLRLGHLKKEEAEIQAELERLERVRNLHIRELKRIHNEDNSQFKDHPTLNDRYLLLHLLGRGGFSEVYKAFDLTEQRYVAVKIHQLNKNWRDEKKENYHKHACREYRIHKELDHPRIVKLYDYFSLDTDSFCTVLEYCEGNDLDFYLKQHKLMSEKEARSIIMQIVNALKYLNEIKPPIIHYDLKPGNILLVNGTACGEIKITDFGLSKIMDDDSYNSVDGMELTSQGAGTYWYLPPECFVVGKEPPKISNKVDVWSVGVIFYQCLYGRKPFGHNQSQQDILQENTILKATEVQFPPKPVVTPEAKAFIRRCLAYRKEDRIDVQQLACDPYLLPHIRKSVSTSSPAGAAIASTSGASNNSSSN
Sequence of kinases (Homo sapiens, UniProt O75914) (O75914 whole entry): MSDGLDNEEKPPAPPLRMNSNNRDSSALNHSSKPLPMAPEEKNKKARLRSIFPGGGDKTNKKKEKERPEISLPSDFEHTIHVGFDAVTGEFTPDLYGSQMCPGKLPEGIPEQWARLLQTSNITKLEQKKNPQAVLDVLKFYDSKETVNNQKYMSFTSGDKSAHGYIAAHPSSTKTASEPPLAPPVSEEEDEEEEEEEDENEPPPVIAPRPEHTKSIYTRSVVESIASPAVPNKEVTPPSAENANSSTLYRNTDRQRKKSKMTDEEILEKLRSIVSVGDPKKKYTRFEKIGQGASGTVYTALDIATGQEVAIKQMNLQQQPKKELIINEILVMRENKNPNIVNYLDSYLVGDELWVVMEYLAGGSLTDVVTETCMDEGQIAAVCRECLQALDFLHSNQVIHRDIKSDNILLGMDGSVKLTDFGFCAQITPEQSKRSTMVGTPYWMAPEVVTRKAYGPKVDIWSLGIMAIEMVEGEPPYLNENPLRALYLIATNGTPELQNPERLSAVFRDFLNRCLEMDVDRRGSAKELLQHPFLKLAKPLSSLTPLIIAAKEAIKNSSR
Sequence of kinases (Homo sapiens, UniProt Q14680) (Q14680 whole entry): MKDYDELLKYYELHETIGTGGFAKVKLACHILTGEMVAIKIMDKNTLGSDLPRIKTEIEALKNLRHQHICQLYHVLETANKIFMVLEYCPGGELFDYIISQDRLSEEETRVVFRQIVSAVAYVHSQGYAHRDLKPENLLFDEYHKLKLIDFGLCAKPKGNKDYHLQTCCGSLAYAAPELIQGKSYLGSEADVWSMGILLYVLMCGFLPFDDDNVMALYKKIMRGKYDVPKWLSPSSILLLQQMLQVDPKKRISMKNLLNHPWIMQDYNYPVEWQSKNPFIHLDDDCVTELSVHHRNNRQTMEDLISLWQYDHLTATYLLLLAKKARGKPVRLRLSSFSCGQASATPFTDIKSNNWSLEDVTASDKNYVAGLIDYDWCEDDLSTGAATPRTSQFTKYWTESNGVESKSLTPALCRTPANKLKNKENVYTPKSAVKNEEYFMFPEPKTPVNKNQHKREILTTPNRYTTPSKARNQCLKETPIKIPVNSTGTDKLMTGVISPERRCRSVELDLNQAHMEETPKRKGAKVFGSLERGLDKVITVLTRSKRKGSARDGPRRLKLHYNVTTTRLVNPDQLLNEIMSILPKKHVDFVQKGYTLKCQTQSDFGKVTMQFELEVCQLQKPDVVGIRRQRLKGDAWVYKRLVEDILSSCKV
Sequence of kinases (Homo sapiens, UniProt P48736) (P48736 whole entry): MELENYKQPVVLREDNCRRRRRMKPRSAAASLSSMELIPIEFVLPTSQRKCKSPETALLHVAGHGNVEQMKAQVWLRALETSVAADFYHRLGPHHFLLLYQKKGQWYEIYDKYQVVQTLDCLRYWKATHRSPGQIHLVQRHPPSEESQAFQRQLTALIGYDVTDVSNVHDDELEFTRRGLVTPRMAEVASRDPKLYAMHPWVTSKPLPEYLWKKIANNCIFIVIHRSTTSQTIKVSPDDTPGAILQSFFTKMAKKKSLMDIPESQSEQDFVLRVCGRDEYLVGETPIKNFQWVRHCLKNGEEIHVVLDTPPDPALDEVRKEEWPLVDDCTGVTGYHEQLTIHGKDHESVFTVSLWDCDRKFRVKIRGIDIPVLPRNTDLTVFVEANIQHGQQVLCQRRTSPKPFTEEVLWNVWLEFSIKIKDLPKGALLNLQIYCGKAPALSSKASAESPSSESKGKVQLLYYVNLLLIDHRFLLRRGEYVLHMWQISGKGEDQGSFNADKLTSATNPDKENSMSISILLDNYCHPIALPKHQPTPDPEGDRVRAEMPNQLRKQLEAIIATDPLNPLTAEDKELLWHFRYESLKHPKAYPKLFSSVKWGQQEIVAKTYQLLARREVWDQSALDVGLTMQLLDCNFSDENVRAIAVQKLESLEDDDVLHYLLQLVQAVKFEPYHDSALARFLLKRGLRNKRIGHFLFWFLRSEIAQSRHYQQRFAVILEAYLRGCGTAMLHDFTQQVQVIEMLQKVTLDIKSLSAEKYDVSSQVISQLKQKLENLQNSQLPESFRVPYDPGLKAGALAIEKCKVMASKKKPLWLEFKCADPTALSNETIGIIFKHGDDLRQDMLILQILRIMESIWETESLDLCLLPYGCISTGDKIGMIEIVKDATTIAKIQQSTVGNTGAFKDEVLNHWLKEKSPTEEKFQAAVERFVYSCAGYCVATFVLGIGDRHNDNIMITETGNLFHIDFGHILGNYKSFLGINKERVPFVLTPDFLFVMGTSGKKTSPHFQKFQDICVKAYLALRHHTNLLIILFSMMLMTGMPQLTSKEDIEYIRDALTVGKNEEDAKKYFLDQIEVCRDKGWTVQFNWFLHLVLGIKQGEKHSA

| SMILES | Mean Inhib (%) (kinases [1]) | Mean Inhib (%) (kinases [2]) | Mean Inhib (%) (kinases [3]) | Mean Inhib (%) (kinases [4]) | Mean Inhib (%) (kinases [5]) | Mean Inhib (%) (kinases [6]) | Mean Inhib (%) (kinases [7]) | Mean Inhib (%) (kinases [9]) | Mean Inhib (%) (kinases [10]) | Mean Inhib (%) (kinases [11]; [29]) | Mean Inhib (%) (kinases [11]; [30]) | Mean Inhib (%) (kinases [12]) | Mean Inhib (%) (kinases [13]) | Mean Inhib (%) (kinases [14]; [31]) | Mean Inhib (%) (kinases [15]) | Mean Inhib (%) (kinases [17]) | Mean Inhib (%) (kinases [18]) | Mean Inhib (%) (kinases [19]) | Mean Inhib (%) (kinases [20]) | Mean Inhib (%) (kinases [21]) | also measured |
| --- | --- | --- | --- | --- | --- | --- | --- | --- | --- | --- | --- | --- | --- | --- | --- | --- | --- | --- | --- | --- | --- |
| Cc1ccc(NC(=O)c2ccnc(N3CCOCC3)c2)cc1Nc1ccnc(N2CC(C)OC(C)C2)n1 (centres unmarked) [compound 3] | 9.3% | 9.4% | 0.8% | 15.5% | 4.7% | 3.5% | 5.2% | 4.8% | −7.6% | −0.2% | 10.6% | −3.9% | 7.4% | −7.7% | −9.5% | 4.5% | 3.6% | −2.9% | −3.8% | −1.3% | Mean Inhib (%) (kinases [8]; CDK4 Cyclin D1 *Mn* Adapta SP): 7.8%; Mean Inhib (%) (kinases [8]; CDK4 Cyclin D3 *Mn* Adapta SP): 5.0%; Mean Inhib (%) (kinases [14]; JAK2 JH1 JH2 FRET-Z-Lyte SP, ATP Conc(μM):Test Conc(μM) 1:25): −0.1%; Mean Inhib (%) (kinases [16]; Test Conc(μM):ATP Conc(μM) 1:300): −3.6%; Mean Inhib (%) (kinases [22]): 4.2%; Mean Inhib (%) (kinases [23]): 5.5%; Mean Inhib (%) (kinases [24]): 3.5%; Mean Inhib (%) (kinases [25]): −0.3%; Mean Inhib (%) (kinases [26]): 2.2%; Mean Inhib (%) (kinases [27]): 7.0%; Mean Inhib (%) (kinases [28]): −1.6% |
| Cc1cc(Oc2ccnc(Nc3ccc(S(N)(=O)=O)cc3)c2)c(-c2ccccn2)nc1C [compound 65] | −14.5% | 3.2% | 2.1% | 3.9% | 2.0% | 2.7% | 14.8% | 5.0% | 4.9% | 5.5% | 1.1% | 2.5% | 9.1% | 4.7% | 14.1% | 11.4% | 6.0% | −4.8% | −6.4% | 2.1% | CDK4 Cyclin D1 *Mn* Adapta SP Mean Mean Inhib (%) (kinases [8]; CDK4 Cyclin D1, Mn): 2.5%; CDK4 Cyclin D3 *Mn* Adapta SP Mean Mean Inhib (%) (kinases [8]; CDK4 Cyclin D3, Mn): −3.9%; Mean Inhib (%) (kinases [14]; JAK2 JH1 JH2 FRET-Z-Lyte SP, ATP Conc(μM):Test Conc(μM) 1:50): −3.9%; Mean Inhib (%) (kinases [16]; Test Conc(μM):ATP Conc(μM) 0.25): 13.7%; Mean Inhib (%) (kinases [22]): 4.1%; Mean Inhib (%) (kinases [23]): 3.7%; Mean Inhib (%) (kinases [24]): 47.1%; Mean Inhib (%) (kinases [25]): 23.3%; Mean Inhib (%) (kinases [26]): −8.6%; Mean Inhib (%) (kinases [27]): 0.2%; Mean Inhib (%) (kinases [28]): 11.3% |
